Measurements as given in publication PMC5918173, “Characterization of Transglutaminase 2 activity inhibitors in monocytes in vitro and their effect in a mouse model for multiple sclerosis” (PLoS ONE, 2018).

Tests used:
fibronectin assembly = test system: fibronectin assembly; design: method as in PMID 26133787, PMID 17099729; settings: cited from earlier work
[1] = target: T1, TG2-fibronectin (FN42) interaction (Homo sapiens, UniProt P21980); test: TG2 interaction with fibronectin (FN42) ELISA; format: binding; settings: 5 and 15 μM, with or without 1 mM CaCl2, Fig 2E, 2F
T1 construct: purchased Zedira
T1 sequence (P21980 1-687): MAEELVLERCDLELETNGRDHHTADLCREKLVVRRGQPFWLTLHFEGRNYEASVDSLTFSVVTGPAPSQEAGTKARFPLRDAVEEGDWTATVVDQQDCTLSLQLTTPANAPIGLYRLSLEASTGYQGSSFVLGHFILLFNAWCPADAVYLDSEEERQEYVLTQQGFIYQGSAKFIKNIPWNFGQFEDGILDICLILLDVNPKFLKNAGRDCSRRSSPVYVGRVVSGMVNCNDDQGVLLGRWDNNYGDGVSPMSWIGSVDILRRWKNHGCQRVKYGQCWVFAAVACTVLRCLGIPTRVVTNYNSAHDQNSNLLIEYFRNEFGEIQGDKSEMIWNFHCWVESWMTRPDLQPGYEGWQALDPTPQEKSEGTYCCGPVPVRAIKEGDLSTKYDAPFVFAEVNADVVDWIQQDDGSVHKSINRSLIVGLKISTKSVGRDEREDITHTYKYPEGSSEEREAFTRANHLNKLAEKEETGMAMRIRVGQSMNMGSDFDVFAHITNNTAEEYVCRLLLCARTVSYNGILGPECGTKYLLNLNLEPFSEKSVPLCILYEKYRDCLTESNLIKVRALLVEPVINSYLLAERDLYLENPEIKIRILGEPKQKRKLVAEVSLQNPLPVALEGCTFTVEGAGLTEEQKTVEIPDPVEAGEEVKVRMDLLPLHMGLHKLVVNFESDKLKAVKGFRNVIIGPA
Method: To determine the potential effect of BJJF078 and ERW1041E on the interaction of TG2 with fibronectin, ELISA experiments were performed as described previously. Briefly, 96 well ELISA plates (Nunc, Maxisorp) were coated with 100 μg/ml mouse anti his-tag monoclonal antibody (Roche) in PBS at 4°C overnight. This was followed by simultaneous washing and blocking with 0.5% BSA in PBS (3x 10 min). Per well 50 μl of a 10 nM human recombinant TG2 (his-tagged, Zedira) solution in PBS was added. Into each well (triplicates) either DMSO (control, 1% final concentration) or TG2 inhibitors (BJJF078, ERW1041E, final concentration 5 and 15 μM in 1% DMSO) were added. As a positive control similar concentrations of TG53, a small molecule that inhibits the interaction between TG2 and fibronectin was added (kindly provided by Prof D. Matei, Northwestern University, Chicago, USA). […] After 1 h incubation at RT, 50 μl of 10 nM FN42-biotin solution (kindly provided by Prof D. Matei) was added to the wells. After an additional 1 h incubation at RT and washing steps (3x 10 min) with 0.5% BSA in PBS, 100 μl streptavidin-HRPO conjugate (from kit opr001, Covalab) was added and incubated for 1 h at RT. This was followed by another series of washes and the colour reaction started with 100 μl of 3,3′,5,5′ tetramethylbenzidine substrate (TMB, from kit opr001, Covalab). After sufficient colour development (15 min), the reaction was stopped with 1M HCl and absorbance was measured at 450 nm.

Row | SMILES | effect on fibronectin assembly (fibronectin assembly) | effect on binding of TG2 to fibronectin (FN42) [1]
1 | O=C(N[C@@H](Cc1ccc(O)cc1)C(=O)NCC1CC(Br)=NO1)OCc1ccccc1 (some centres unmarked) [KCC009] | can interfere with fibronectin assembly | 
2 | COc1ccc(Cl)cc1C(=O)Nc1ccc(Nc2nc(C)cc(N(C)C)n2)cc1 [TG53] |  | dose-dependent reduction
